From ChEMBL document CHEMBL3046732, “Synthesis and biological evaluation of new [1,3,4]thiadiazepino[7,6-b]quinolin-2-amines as potent anti-microbial agents” (2013)

Tests used:
Curvularia australiensis = assay: Antimicrobial activity against Curvularia australiensis assessed as growth inhibition by microdilution method; format: functional
Aspergillus niger = assay: Antimicrobial activity against Aspergillus niger assessed as growth inhibition by microdilution method; format: functional
Alternaria alternata = assay: Antimicrobial activity against Alternaria alternata assessed as growth inhibition by microdilution method; format: functional
Aspergillus flavus = assay: Antimicrobial activity against Aspergillus flavus assessed as growth inhibition by microdilution method; format: functional
Trichoderma reesei = assay: Antimicrobial activity against Trichoderma reesei assessed as growth inhibition by microdilution method; format: functional
Escherichia coli = assay: Antimicrobial activity against Escherichia coli assessed as growth inhibition by microdilution method
Bacillus subtilis = assay: Antimicrobial activity against Bacillus subtilis assessed as growth inhibition by microdilution method
Staphylococcus aureus = assay: Antimicrobial activity against Staphylococcus aureus assessed as growth inhibition by microdilution method
Klebsiella aerogenes = assay: Antimicrobial activity against Enterobacter aerogenes assessed as growth inhibition by microdilution method
Streptococcus pyogenes = assay: Antimicrobial activity against Streptococcus pyogenes assessed as growth inhibition by microdilution method
Salmonella typhimurium = assay: Antimicrobial activity against Salmonella enterica subsp. enterica serovar Typhimurium assessed as growth inhibition by microdilution method

SMILES | MIC (Curvularia australiensis) | MIC (Aspergillus niger) | MIC (Alternaria alternata) | MIC (Aspergillus flavus) | MIC (Trichoderma reesei) | MIC (Escherichia coli) | MIC (Bacillus subtilis) | MIC (Staphylococcus aureus) | MIC (Klebsiella aerogenes) | MIC (Streptococcus pyogenes) | MIC (Salmonella typhimurium)
Cc1ccc2nc3c(cc2c1)C=NN=C(NCCN1CCOCC1)S3 | 500 µg/mL | 500 µg/mL | 500 µg/mL | 500 µg/mL | 250 µg/mL | 500 µg/mL | > 1000 µg/mL | 1000 µg/mL | 1000 µg/mL | > 1000 µg/mL | 1000 µg/mL
COc1ccc2nc3c(cc2c1)C=NN=C(Nc1ccc(C)cc1)S3 | 500 µg/mL | > 1000 µg/mL | 500 µg/mL | 1000 µg/mL | 1000 µg/mL | 500 µg/mL | 250 µg/mL | 500 µg/mL | 500 µg/mL | 500 µg/mL | 500 µg/mL
COc1ccc2nc3c(cc2c1)C=NN=C(Nc1cccc(Cl)c1)S3 | 500 µg/mL | 500 µg/mL | 60 µg/mL | 500 µg/mL | 500 µg/mL | 30 µg/mL | 60 µg/mL | 500 µg/mL | 250 µg/mL | 30 µg/mL | 500 µg/mL
Cc1c(Cl)ccc2cc3c(nc12)SC(Nc1ccccc1F)=NN=C3 | 1000 µg/mL | 500 µg/mL | 500 µg/mL | 500 µg/mL | 250 µg/mL | 500 µg/mL | 60 µg/mL | 500 µg/mL | 500 µg/mL | 60 µg/mL | 500 µg/mL
Cc1cccc2cc3c(nc12)SC(Nc1ccc(Cl)cc1)=NN=C3 | 500 µg/mL | 1000 µg/mL | 500 µg/mL | 250 µg/mL | 1000 µg/mL | 1000 µg/mL | 1000 µg/mL | 1000 µg/mL | 1000 µg/mL | 1000 µg/mL | 1000 µg/mL
COc1ccc2nc3c(cc2c1)C=NN=C(NCc1ccccc1)S3 | 1000 µg/mL | 1000 µg/mL | 1000 µg/mL | 1000 µg/mL | 500 µg/mL | 1000 µg/mL | 1000 µg/mL | 1000 µg/mL | 125 µg/mL | 1000 µg/mL | 500 µg/mL
Cc1ccc(NC2=NN=Cc3cc4ccc(Cl)c(C)c4nc3S2)cc1 | 1000 µg/mL | 1000 µg/mL | 500 µg/mL | 1000 µg/mL | 250 µg/mL | 250 µg/mL | 125 µg/mL | 500 µg/mL | 500 µg/mL | 250 µg/mL | 500 µg/mL
COc1ccc2nc3c(cc2c1)C=NN=C(Nc1cccc(F)c1)S3 | 500 µg/mL | 1000 µg/mL | 500 µg/mL | 500 µg/mL | 1000 µg/mL | 500 µg/mL | 60 µg/mL | 500 µg/mL | 500 µg/mL | 500 µg/mL | 1000 µg/mL
CCc1ccc(NC2=NN=Cc3cc4cc(C)ccc4nc3S2)cc1 | 1000 µg/mL | 500 µg/mL | 500 µg/mL | 1000 µg/mL | 500 µg/mL | > 1000 µg/mL | 1000 µg/mL | > 1000 µg/mL | > 1000 µg/mL | > 1000 µg/mL | > 1000 µg/mL
Cc1cccc2cc3c(nc12)SC(Nc1cccc(F)c1)=NN=C3 | 1000 µg/mL | 1000 µg/mL | 500 µg/mL | 1000 µg/mL | 500 µg/mL | 1000 µg/mL | 1000 µg/mL | 500 µg/mL | 1000 µg/mL | 500 µg/mL | 500 µg/mL

Now from value to compound:

MIC (Curvularia australiensis) | MIC (Aspergillus niger) | MIC (Alternaria alternata) | MIC (Aspergillus flavus) | MIC (Trichoderma reesei) | MIC (Escherichia coli) | MIC (Bacillus subtilis) | MIC (Staphylococcus aureus) | MIC (Klebsiella aerogenes) | MIC (Streptococcus pyogenes) | MIC (Salmonella typhimurium) | SMILES
1000 µg/mL | 250 µg/mL | 1000 µg/mL | 125 µg/mL | 125 µg/mL | 1000 µg/mL | 500 µg/mL | 500 µg/mL | 500 µg/mL | 500 µg/mL | 1000 µg/mL | Cc1ccc2nc3c(cc2c1)C=NN=C(Nc1ccccc1C)S3
500 µg/mL | 1000 µg/mL | 500 µg/mL | 500 µg/mL | 250 µg/mL | 1000 µg/mL | 1000 µg/mL | 1000 µg/mL | 1000 µg/mL | 1000 µg/mL | 1000 µg/mL | Cc1ccc(NC2=NN=Cc3cc4cccc(C)c4nc3S2)c(C)c1
500 µg/mL | 500 µg/mL | 125 µg/mL | 500 µg/mL | 250 µg/mL | 1000 µg/mL | 1000 µg/mL | 500 µg/mL | > 1000 µg/mL | 500 µg/mL | > 1000 µg/mL | COc1ccc2nc3c(cc2c1)C=NN=C(Nc1ccccc1F)S3
500 µg/mL | 1000 µg/mL | 250 µg/mL | 1000 µg/mL | 500 µg/mL | 500 µg/mL | 1000 µg/mL | 1000 µg/mL | 1000 µg/mL | 1000 µg/mL | 500 µg/mL | COc1ccc2nc3c(cc2c1)C=NN=C(Nc1ccc(C)cc1C)S3
